The structures appear in SMILES notation.

One may read the inhibition as the change of the read-out against control, counted positive when it falls.

S. aureus GyrB ATPase, sequence (P0AES4 whole entry): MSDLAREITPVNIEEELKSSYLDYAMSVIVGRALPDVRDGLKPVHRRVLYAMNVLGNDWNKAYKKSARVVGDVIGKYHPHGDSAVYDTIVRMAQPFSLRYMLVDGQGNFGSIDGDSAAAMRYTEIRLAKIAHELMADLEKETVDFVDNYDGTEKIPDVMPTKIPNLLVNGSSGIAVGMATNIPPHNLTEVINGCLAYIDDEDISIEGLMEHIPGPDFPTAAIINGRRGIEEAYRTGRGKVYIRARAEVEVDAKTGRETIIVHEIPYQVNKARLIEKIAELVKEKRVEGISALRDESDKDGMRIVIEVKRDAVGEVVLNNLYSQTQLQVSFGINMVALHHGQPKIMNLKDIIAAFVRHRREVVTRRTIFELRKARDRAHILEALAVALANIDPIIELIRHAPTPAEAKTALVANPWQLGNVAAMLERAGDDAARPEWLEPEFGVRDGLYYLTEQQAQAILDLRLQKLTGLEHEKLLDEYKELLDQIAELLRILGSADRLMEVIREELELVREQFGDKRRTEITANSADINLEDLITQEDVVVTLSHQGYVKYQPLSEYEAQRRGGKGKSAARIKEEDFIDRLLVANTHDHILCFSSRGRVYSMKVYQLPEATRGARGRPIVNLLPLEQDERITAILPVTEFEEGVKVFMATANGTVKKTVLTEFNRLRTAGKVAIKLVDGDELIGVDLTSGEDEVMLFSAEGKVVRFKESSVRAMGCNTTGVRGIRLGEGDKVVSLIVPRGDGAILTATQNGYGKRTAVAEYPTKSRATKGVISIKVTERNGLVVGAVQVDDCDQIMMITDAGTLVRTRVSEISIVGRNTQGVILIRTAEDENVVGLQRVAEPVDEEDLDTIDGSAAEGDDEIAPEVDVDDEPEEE
S. aureus GyrB ATPase, sequence (P0A0K8 whole entry): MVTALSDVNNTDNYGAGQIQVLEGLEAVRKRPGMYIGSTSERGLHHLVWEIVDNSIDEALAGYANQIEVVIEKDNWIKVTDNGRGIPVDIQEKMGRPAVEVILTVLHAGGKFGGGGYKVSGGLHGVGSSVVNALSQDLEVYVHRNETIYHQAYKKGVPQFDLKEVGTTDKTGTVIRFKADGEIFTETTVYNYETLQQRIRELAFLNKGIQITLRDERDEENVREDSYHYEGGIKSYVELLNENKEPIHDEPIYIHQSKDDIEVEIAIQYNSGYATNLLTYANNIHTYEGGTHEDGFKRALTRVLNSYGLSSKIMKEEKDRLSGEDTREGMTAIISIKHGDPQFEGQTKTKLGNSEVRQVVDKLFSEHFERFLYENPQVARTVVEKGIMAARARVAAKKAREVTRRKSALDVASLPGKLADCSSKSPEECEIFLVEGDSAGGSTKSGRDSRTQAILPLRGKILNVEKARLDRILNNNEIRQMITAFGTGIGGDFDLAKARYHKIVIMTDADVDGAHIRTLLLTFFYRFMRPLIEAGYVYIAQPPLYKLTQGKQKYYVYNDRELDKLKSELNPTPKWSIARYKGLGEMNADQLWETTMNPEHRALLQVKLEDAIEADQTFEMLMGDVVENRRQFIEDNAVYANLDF

This test addresses S. aureus GyrB ATPase (Staphylococcus aureus, UniProt P0A0K8). Nature of the test: S. aureus GyrB ATPase inhibition (ammonium molybdate/malachite green phosphate detection). It is filed as biochemical. As to conditions: compound concentration of 1 μM. The procedure:
S. aureus GyrB ATPase Inhibition Activity: Compounds may be tested for inhibition of S. aureus GyrB ATPase activity using an ammonium molybdate/malachite green-based phosphate detection assay (Lanzetta, P. A., L. J. Alvarez, P. S. Reinach, and O. A. Candia, 1979, 100: 95-97). Assays can be performed in multiwell plates in 30 μl reactions containing: 50 mM Hepes buffer pH 7.5, 75 mM ammonium acetate, 8.0 mM magnesium chloride, 0.5 mM ethylenediaminetetraacetic acid, 5% glycerol, 1.0 mM 1,4-Dithio-DL-threitol, 200 nM bovine serum albumin, 1.0 μg/ml sheared salmon sperm DNA, 250 pM E. coli GyrA, 250 pM S. aureus GyrB, 250 μM ATP, and compound in dimethylsulfoxide. Reactions can be quenched with […] of ammonium molybdate/malachite green detection reagent containing 1.2 mM malachite green hydrochloride, 8.5 mM ammonium molybdate tetrahydrate, and 1 M hydrochloric acid. Plates can be read in an absorbance plate reader at 650 nm and percent inhibition values can be calculated using dimethylsulfoxide (2%)-containing reactions as 0% inhibition and EDTA-containing ([…]) reactions as 100% inhibition controls. An IC50 measurement of compound potency for each compound can be determined from reactions performed in the presence of 10 different compound concentrations.
Compounds of the invention were tested in an assay substantially similar to the assay described above for measuring the inhibition of S. aureus GyrB ATPase. Percent inhibition of S. aureus GyrB ATPase at a compound concentration of 1 μM (unless otherwise noted) is disclosed in the following table: […]
As to `CCOC(=O)c1sc(N2CC[C@@H](NC(=O)c3[nH]c(C)c(Cl)c3Cl)[C@@H](OC)C2)nc1-c1cnccn1` [Example 53], the inhibition at 1 µM was determined as 100%.

In the case of `CCOC(=O)c1sc(N2CC[C@@H](NC(=O)c3[nH]c(C)c(Cl)c3Cl)[C@@H](OC)C2)nc1-c1nc2ccccc2s1` [Example 54], the inhibition at 1 µM amounted to 97.8%. Consider `CCOC(=O)c1sc(N2CC[C@@H](NC(=O)c3[nH]c(C)c(Cl)c3Cl)[C@@H](F)C2)nc1-c1cnccn1` [Example 55], for which the inhibition at 1 µM came to 97.9%. For `CCOC(=O)c1sc(N2CC[C@@H](NC(=O)c3[nH]c(C)c(Cl)c3Cl)[C@@H](F)C2)nc1-c1nc2ccccc2s1` [Example 56], the inhibition at 1 µM is 93.9%. For `COCn1ccnc1-c1nc(N2CC[C@@H](NC(=O)c3[nH]c(C)c(Cl)c3Cl)[C@@H](OC)C2)sc1C(=O)OC` [Example 58, methyl 2-((3S,4R)-4-{[(3,4-dichloro-5-methyl-1H-pyrrol-2-yl)carbonyl]amino}-3-methoxypiperidin-1-yl)-4-[1-(methoxymethyl)-1H-imidazol-2-yl]-1,3-thiazole-5-carboxylate], the inhibition at 1 µM was determined as 99.5%.

With `COCn1ccnc1-c1nc(N2CC[C@@H](NC(=O)c3[nH]c(C)c(Cl)c3Cl)[C@@H](F)C2)sc1C(=O)OC` [Example 59], the inhibition at 1 µM was found to be 100%. For `COC(=O)c1sc(N2CC[C@@H](NC(=O)c3[nH]c(C)c(Cl)c3Cl)[C@@H](OC)C2)nc1-c1ccno1` [Example 60], the inhibition at 1 µM is 104%. Then `COC(=O)c1sc(N2CC[C@@H](NC(=O)c3[nH]c(C)c(Cl)c3Cl)[C@@H](F)C2)nc1-c1ccno1` [Example 61], with 94.7%. As for `COC(=O)c1sc(N2CC[C@@H](NC(=O)c3[nH]c(C)c(Cl)c3Cl)[C@@H](OC)C2)nc1-c1ccn[nH]1` [Example 62], the inhibition at 1 µM worked out at 99.9%. Regarding `COC(=O)c1sc(N2CC[C@@H](NC(=O)c3[nH]c(C)c(Cl)c3Cl)[C@@H](F)C2)nc1-c1ccn[nH]1` [Example 63], the inhibition at 1 µM was 99.8%. Then `COCCn1ccnc1-c1nc(N2CC[C@@H](NC(=O)c3[nH]c(C)c(Cl)c3Cl)[C@@H](OC)C2)sc1C(=O)OC` [Example 64], with 96.2%. Regarding `COCCn1ccnc1-c1nc(N2CC[C@@H](NC(=O)c3[nH]c(C)c(Cl)c3Cl)[C@@H](F)C2)sc1C(=O)OC` [Example 65], the inhibition at 1 µM came out at 98.3%. In the case of `COC(=O)c1sc(N2CC[C@@H](NC(=O)c3[nH]c(C)c(Cl)c3Cl)[C@@H](OC)C2)nc1-c1ncnn1C` [Example 66], the inhibition at 1 µM came out at 101%. With `COC(=O)c1sc(N2CC[C@@H](NC(=O)c3[nH]c(C)c(Cl)c3Cl)[C@@H](F)C2)nc1-c1ncnn1C` [Example 67], the inhibition at 1 µM is 75.2%. Turning to `COC(=O)c1sc(N2CC[C@@H](NC(=O)c3cc(C#N)c(C)[nH]3)[C@@H](OC)C2)nc1-c1ncnn1C` [Example 68], the inhibition at 1 µM amounted to 97%.

Regarding `COCCn1ccnc1-c1nc(N2CC[C@@H](NC(=O)c3[nH]c(C)c(C#N)c3Cl)[C@@H](OC)C2)sc1C(=O)OC` [Example 69], the inhibition at 1 µM turned out to be 100%. Take `COC(=O)c1sc(N2CC[C@@H](NC(=O)c3[nH]c(C)c(Cl)c3Cl)[C@@H](OC)C2)nc1-c1nc(C)c(C)n1C` [Example 70]: the inhibition at 1 µM was found to be 99.5%. Take `COC(=O)c1sc(N2CC[C@@H](NC(=O)c3[nH]c(C)c(Cl)c3Cl)[C@@H](OC)C2)nc1-c1csc(N)n1` [Example 71]: the inhibition at 1 µM amounted to 101%. On to `CNc1nc(-c2nc(N3CC[C@@H](NC(=O)c4[nH]c(C)c(Cl)c4Cl)[C@@H](OC)C3)sc2C(=O)OC)cs1` [Example 72], for which the inhibition at 1 µM stood at 101%. As for `COC(=O)c1sc(N2CC[C@@H](NC(=O)c3[nH]c(C)c(Cl)c3Cl)[C@@H](OC)C2)nc1-c1csc(N(C)C)n1` [Example 73], the inhibition at 1 µM was 99.9%.

As to `COC(=O)c1sc(N2CC[C@@H](NC(=O)c3[nH]c(C)c(Cl)c3Cl)[C@@H](F)C2)nc1-c1csc(N)n1` [Example 74], the inhibition at 1 µM stood at 100%.

These data come from US20080312255A1 (ASTRAZENECA AB, priority 2007, published 2008).
